Like-named read-outs stand apart in the source and are kept apart here.
Tests used:
[1] = target: T1, HIV-1 IN (Human immunodeficiency virus type 1 group M subtype B, UniProt P04585); conditions: cited from earlier work; for IC50: read-out: IC50 against HIV-1 IN (converted); for Effect against HIV-1 IN: isolated from Coleus parvifolius
T1 construct: using HIV-1 IN enzymes according to the multiplate integration assay (MIA)

[2] = test system: LPS-induced nitric oxide production in RAW264.7 cells; assay: Inhibitory effect on LPS-induced nitric oxide (NO) production in RAW264.7 cells (Griess reagent); type: cell-based; conditions: for inhibition at 3 µM / inhibition at 10 µM / inhibition at 30 µM / inhibition at 100 µM: read-out: % Inhibition at various concentration (μM), NO production; for IC50: read-out: IC50, inhibition of LPS-induced NO production
Experimental: To evaluate the anti-inflammatory activity, an inhibitory effect on nitric oxide (NO) production was carried out according to the previous report described by Sudsai et al.. Briefly, RAW264.7 cells were seeded onto 96-well plates (1 × 10^5 cells/well) and were maintained to adhere at 37°C for 1 h in a CO2 incubator containing 5% CO2. They were then cultured in RPMI-1640 medium containing lipopolysaccharide (LPS, 100 ng/ml) together with the test compounds at various concentrations (3–100 μM). After 24 h of incubation, the nitrite (NO^2–) concentration in the culture medium was determined as an indicator of NO production using the Griess reagent to assay the accumulation of NO^2–, a stable metabolite of NO. The absorbance was measured using a microplate reader at 570 nm. In this study, NO synthase inhibitor (L-nitro-arginine, L-NA), nuclear translocation of NF-κB inhibitor (caffeic acid phenethyl ester, CAPE) and nonsteroidal anti-inflammatory drug, NSAID (indomethacin), were used as positive controls.

[3] = test system: RAW264.7 macrophage cells; assay: Viability assay of RAW264.7 macrophage cells (MTT); conditions: 24 h, cytotoxic when viability less than 80% of control
Experimental: The cytotoxicity of the test compounds after 24 h of incubation was determined by the colorimetric method described by Sudsai et al.. A volume of 10 μl of MTT solution (5 mg/ml in PBS) was added to each well of 96-well plates and further incubated in a CO2 incubator for 4 h. The formazan products generated by MTT reduction were dissolved in DMSO. At last, the medium was removed, 100 μl of DMSO was then added to each well and thoroughly mixed by gently tapping on the test plate. The absorbance of formazan solution was measured at a wavelength of 570 nm using a microplate reader. The test compounds were considered to be cytotoxic when the viability of the compound-treated group was less than 80% of that in the control (1% DMSO-treated) group.

[4] = target: T1, HIV-1 IN; assay: HIV-1 IN inhibitory activity, multiplate integration assay (MIA); type: biochemical
Experimental: The anti-HIV IN activity of isolated compounds was determined in an in vitro model using HIV-1 IN enzymes according to the multiplate integration assay (MIA) as previously described. Briefly, a mixture (45 μL) composed of 12 μL of IN buffer (containing 150 mM 3-(N-morpholino)propanesulfonic acid, pH 7.2 (MOPS), 75 mM MnCl2, 5 mM dithiothreitol (DTT), 25% glycerol, and 500 μg/mL bovine serum albumin), 1 μL of 5 pmol/mL digoxigenin-labeled target DNA, and 32 μL of sterilized water was added into each well of a 96-well plate. Subsequently, 6 μL of sample solution in DMSO and 9 μL of a 1/5 dilution of the IN enzyme were added to each well and incubated at 37°C for 80 min. After washing the plate three times with PBS with 0.05% Tween 20 (PBST), 100 μL of 500 mU/mL alkaline phosphatase- (AP-) labeled anti-digoxigenin antibody was added and incubated at 37°C for 1 h. The plates were washed with PBS three times. Then, AP buffer (150 μL) containing 100 mM Tris-HCl (pH 9.5), 100 mM NaCl, 5 mM MgCl2, and 10 mM p-nitrophenyl phosphate was added to each well and incubated at 37°C for 1 h. Finally, the absorbance of p-nitrophenol, the final product of the integration reaction, was measured with a microplate reader (Rayto, RT-2100C) at a wavelength of 405 nm. Suramin, a polyanionic HIV-1 IN inhibitor, was used as a positive control.

[5] = Mus musculus, RAW264.7, 3 μM, LPS 100 ng/ml, 24 h
[6] = Mus musculus, RAW264.7, 10 μM, LPS 100 ng/ml, 24 h
[7] = Mus musculus, RAW264.7, 30 μM, LPS 100 ng/ml, 24 h
[8] = Mus musculus, RAW264.7, 100 μM, LPS 100 ng/ml, 24 h
[9] = Mus musculus, RAW264.7 cells, LPS 100 ng/ml, 24 h
[10] = read-out: % Inhibition at various concentrations
[11] = mean ± S.E.M. of four determinations, read-out: IC50, anti-HIV-1 integrase activity

Compound	inhibition at 3 µM [2, 5]	inhibition at 10 µM [2, 6]	inhibition at 30 µM [2, 7]	inhibition at 100 µM [2, 8]	IC50 [2, 9]	inhibition at 10 µM [4, 10]	inhibition at 30 µM [4, 10]	inhibition at 100 µM [4, 10]	IC50 [4, 11]	further results
Oc1cc(O)c2c(c1)CCc1cc(O)c(O)cc1-2 [2,4,6,7-tetrahydroxy 9,10-dihydrophenanthrene]	–	–	–	–	–	–	–	–	–	IC50 ([1]; from bulbils of Dioscorea bulbifera): 14.2 µM
O=C(/C=C/c1ccc(O)c(O)c1)OCCc1ccccc1 [CAPE, caffeic acid phenethyl ester, reference compound]	22.7 ± 3.1%	48.6 ± 0.7%	66.8 ± 0.5%	85.9 ± 1%	12.3 ± 0.8 µM	–	–	–	–	–
C=C(C)[C@@H]1CC[C@]2(CO)CC[C@]3(C)[C@H](CC[C@@H]4[C@@]5(C)CC[C@H](O)C(C)(C)[C@@H]5CC[C@]43C)[C@@H]12 [Betulin (2), betulin]	–	–	–	–	–	41.2 ± 1.5%	57.6 ± 1.2%	70.7 ± 2.1%	17.7 ± 0.6 µM	Cytotoxicity to RAW 264.7 cells [3]: caused cytotoxicity; inhibition at 3 µM ([2]; Mus musculus, RAW264.7, 24 h): 2.9 ± 1.9%; inhibition at 10 µM ([2]; Mus musculus, RAW264.7, 24 h): 13 ± 1.6%; inhibition at 30 µM ([2]; Mus musculus, RAW264.7, 24 h): 58 ± 1.1%; inhibition at 100 µM ([2]; Mus musculus, RAW264.7, 24 h): 81.8 ± 1.2%; IC50 ([2]; Mus musculus, RAW264.7, 24 h): 30.1 ± 0.3 µM
C[C@H]1[C@H](C)CC[C@]2(C(=O)O)CC[C@]3(C)C(=CC[C@@H]4[C@@]5(C)CC[C@H](O)C(C)(C)[C@@H]5CC[C@]43C)[C@H]12 [Ursolic acid (5), ursolic acid]	5.4 ± 2.3%	10.2 ± 3.2%	13.6 ± 3.2%	67.1 ± 1.8%	68.7 ± 5.9 µM	31.6 ± 0.9%	48.5 ± 1.2%	60.2 ± 2.1%	35 ± 1 µM	–
C=C(C)[C@@H]1CC[C@]2(C)CC[C@]3(C)[C@H](CC[C@@H]4[C@@]5(C)CC[C@H](O)C(C)(C)[C@@H]5CC[C@]43C)[C@@H]12 [Lupeol (3), lupeol]	6 ± 1.7%	11.4 ± 2.7%	23.4 ± 1.9%	78.2 ± 1%	47.3 ± 1 µM	12.2 ± 1.3%	25.9 ± 2%	40.6 ± 1.8%	> 100 µM	Cytotoxicity to RAW 264.7 cells [3]: caused cytotoxicity; IC50, anti-HIV-1 integrase activity ([4]; mean ± S.E.M. of four determinations): inactive
CN1C[C@H](O)C[C@H]1C(=O)O [N-methyl-trans-4-hydroxy-L-proline]	–	–	–	–	–	–	–	–	–	IC50 ([1]; from Aglaia andamanica leaves): 81.3 µM
O=C(O)c1ccc(O)c(O)c1 [protocatechuic acid]	–	–	–	–	–	–	–	–	–	% inhibition of HIV-1 IN ([1]; 100 μM): 46.0%
O=c1cc(-c2ccc(O)c(O)c2)oc2cc(O)cc(O)c12 [luteolin]	–	–	–	–	–	–	–	–	–	Effect against HIV-1 IN [1]: potent
CC1(C)CC[C@]2(C(=O)O)CC[C@]3(C)C(=CC[C@@H]4[C@@]5(C)CC[C@H](O)C(C)(C)[C@@H]5CC[C@]43C)[C@@H]2C1 [Oleanolic acid (4), oleanolic acid]	10.9 ± 1.8%	18.4 ± 1.2%	28.2 ± 3.2%	63.4 ± 1%	62.8 ± 3.6 µM	33.4 ± 1.8%	49.1 ± 2.2%	65.5 ± 1.5%	–	IC50 ([4]; IC50, anti-HIV-1 integrase activity, mean ± S.E.M. of four determinations): 30.3 ± 1.3 µM
Cc1ccc(C(=O)Nc2ccc(S(=O)(=O)O)c3cc(S(=O)(=O)O)cc(S(=O)(=O)O)c23)cc1NC(=O)c1cccc(NC(=O)Nc2cccc(C(=O)Nc3cc(C(=O)Nc4ccc(S(=O)(=O)O)c5cc(S(=O)(=O)O)cc(S(=O)(=O)O)c45)ccc3C)c2)c1 [Suramin, reference compound]	–	–	–	–	–	70.9 ± 1.5%	93.3 ± 1.3%	99.9 ± 1.7%	2.8 ± 0.1 µM	inhibition at 1 µM ([4]; 1 μM, read-out: % Inhibition at various concentrations): 32.1 ± 0.6%; inhibition at 3 µM ([4]; 3 μM, read-out: % Inhibition at various concentrations): 50.3 ± 1.6%; IC50 ([4]; mean ± S.E.M. of four determinations, read-out: IC50, anti-HIV-1 IN activity of B. alnoides extract and its fractions (converted)): 3.01 µM
C=C(C)[C@@H]1CC[C@]2(C(=O)O)CC[C@]3(C)[C@H](CC[C@@H]4[C@@]5(C)CC[C@H](O)C(C)(C)[C@@H]5CC[C@]43C)[C@@H]12 [Betulinic acid (1), betulinic acid]	14.6 ± 2.3%	22.1 ± 1.2%	49.4 ± 3.2%	79.5 ± 1.7%	31 ± 1.9 µM	39 ± 2.3%	53.2 ± 1.2%	65.6 ± 2.1%	24.8 ± 1.3 µM	–
COc1ccc2c(c1)c(CC(=O)O)c(C)n2C(=O)c1ccc(Cl)cc1 [Indomethacin, indomethacin, reference compound]	32 ± 2.6%	43.8 ± 1.2%	54.1 ± 2%	79 ± 1.4%	17.6 ± 1.6 µM	–	–	–	–	–
NC(=NCCC[C@H](N)C(=O)O)N[N+](=O)[O-] [L-NA, L-nitro-arginine, reference compound]	–	–	–	–	–	–	–	–	–	% Inhibition at various concentration (μM), NO production ([2]; 3 μM, LPS 100 ng/ml, 24 h): 19.3 ± 4.7%; % Inhibition at various concentration (μM), NO production ([2]; 10 μM, LPS 100 ng/ml, 24 h): 22.1 ± 1.9%; % Inhibition at various concentration (μM), NO production ([2]; 30 μM, LPS 100 ng/ml, 24 h): 32.6 ± 3.5%; % Inhibition at various concentration (μM), NO production ([2]; 100 μM, LPS 100 ng/ml, 24 h): 79.7 ± 4.8%; IC50 ([2]; RAW264.7 cells, LPS 100 ng/ml, 24 h): 40.4 ± 6.1 µM
O=C(/C=C/c1ccc(O)cc1)CC(=O)/C=C/c1ccc(O)cc1 [bisdemethoxycurcumin]	–	–	–	–	–	–	–	–	–	IC50 ([1]; from rhizomes of Boesenbergia kingii): 47.7 µM
Oc1cc(O)c2c(c1)O[C@H](c1ccc(O)c(O)c1)[C@@H](O)C2 [(+)-Catechin]	–	–	–	–	–	–	–	–	–	IC50 ([1]; isolated from Albizia procera bark): 46.3 µM
COc1cc(O)c2c(=O)cc(-c3ccc(O)c(O)c3)oc2c1 [luteolin 7-methyl ether]	–	–	–	–	–	–	–	–	–	Effect against HIV-1 IN [1]: potent

From article PMC6589325, “Evaluation of Anti-HIV-1 Integrase and Anti-Inflammatory Activities of Compounds from Betula alnoides Buch-Ham” (Advances in Pharmacological Sciences, 2019)
